As a reminder, the IC50 is the midpoint of a concentration-inhibition curve.

The record followed here is patent US11236046B2, “Substituted heterocyclic sulfonamide compounds useful as TRPA1 modulators” (Genentech, Inc., priority 2013, dated 2022).

Chain of human TRPA1 (O75762 whole entry): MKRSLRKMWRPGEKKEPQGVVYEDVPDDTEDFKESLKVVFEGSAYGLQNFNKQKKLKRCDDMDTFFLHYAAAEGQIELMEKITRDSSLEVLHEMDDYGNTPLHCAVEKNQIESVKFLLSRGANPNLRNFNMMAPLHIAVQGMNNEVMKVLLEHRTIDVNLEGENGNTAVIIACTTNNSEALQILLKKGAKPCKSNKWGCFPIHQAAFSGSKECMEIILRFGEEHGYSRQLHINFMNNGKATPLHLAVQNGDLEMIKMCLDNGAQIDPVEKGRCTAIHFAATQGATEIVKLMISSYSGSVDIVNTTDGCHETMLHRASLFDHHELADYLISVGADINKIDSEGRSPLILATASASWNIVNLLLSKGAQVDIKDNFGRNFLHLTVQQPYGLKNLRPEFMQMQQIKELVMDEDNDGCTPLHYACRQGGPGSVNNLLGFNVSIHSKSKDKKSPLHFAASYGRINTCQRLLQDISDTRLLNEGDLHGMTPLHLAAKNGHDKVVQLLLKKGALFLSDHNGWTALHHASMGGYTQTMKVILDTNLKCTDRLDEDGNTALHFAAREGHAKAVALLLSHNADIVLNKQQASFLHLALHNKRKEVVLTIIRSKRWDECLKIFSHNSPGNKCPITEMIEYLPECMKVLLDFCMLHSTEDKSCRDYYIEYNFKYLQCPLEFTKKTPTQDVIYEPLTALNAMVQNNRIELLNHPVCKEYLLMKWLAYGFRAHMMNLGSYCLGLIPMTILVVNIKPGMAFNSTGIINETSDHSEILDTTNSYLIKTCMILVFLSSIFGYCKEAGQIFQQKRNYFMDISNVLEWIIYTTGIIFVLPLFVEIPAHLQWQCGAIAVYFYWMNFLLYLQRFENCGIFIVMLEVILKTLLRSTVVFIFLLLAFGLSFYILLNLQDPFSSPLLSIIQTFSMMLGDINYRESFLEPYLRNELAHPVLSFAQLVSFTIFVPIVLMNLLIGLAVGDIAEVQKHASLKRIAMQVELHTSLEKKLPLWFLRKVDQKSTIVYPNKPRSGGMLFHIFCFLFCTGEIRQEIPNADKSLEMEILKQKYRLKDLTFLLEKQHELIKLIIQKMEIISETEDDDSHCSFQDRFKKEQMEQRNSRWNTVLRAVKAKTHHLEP

This experiment has as its target human TRPA1 (Homo sapiens (Human), UniProt O75762). Briefly: FLIPR Tetra calcium influx assay, block of cinnamaldehyde-induced calcium influx in CHO cells expressing TRPA1 (human). Format: cell-based. As to conditions: 20 min compound incubation, 75 uM cinnamaldehyde (~EC80), Hill coefficient fixed to 1.5, read-out: hTRPA1 AUC IC50. In short, it runs like this: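 CHO cells loaded with calcium dye, preincubated with compounds 20 min at room temperature in HBSS/20 mM HEPES pH 7.4 with 0.02% BSA. Channels activated by ~EC80 cinnamaldehyde (75 uM human, 45 uM rat); block of calcium influx read on FLIPR Tetra, IC50 fitted with fixed Hill coefficient.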
In the case of `O=C(NCc1cc(-c2cnc(C(F)(F)F)cn2)c(F)cn1)[C@@H]1C[C@@H](F)CN1S(=O)(=O)c1ccc(F)cc1` [Example 102, (2S,4R)-4-fluoro-N-([5-fluoro-4-[5-(trifluoromethyl)pyrazin-2-yl]pyridin-2-yl]methyl)-1-[(4-fluorobenzene)sulfonyl]pyrrolidine-2-carboxamide], the IC50 is 66 nM.
As to `O=C(NCc1cc(N2CCC(C(F)(F)F)CC2)c(C(F)(F)F)cn1)[C@@H]1C[C@@H](F)CN1S(=O)(=O)c1ccc(F)cc1` [Example 130, (2S,4R)-4-fluoro-1-(4-fluorophenyl)sulfonyl-N-[[5-(trifluoromethyl)-4-[4-(trifluoromethyl)-1-piperidyl]-2-pyridyl]methyl]pyrrolidine-2-carboxamide], the IC50 stood at 52 nM.
For `O=C(NCc1cc(-c2cnc(C(F)(F)F)nc2)c(F)cn1)[C@@H]1C[C@@H](F)CN1S(=O)(=O)c1ccc(F)cc1` [Example 167, (2S,4R)-4-fluoro-N-((5-fluoro-4-(2-(trifluoromethyl)pyrimidin-5-yl)pyridin-2-yl)methyl)-1-(4-fluorophenylsulfonyl)pyrrolidine-2-carboxamide], the IC50 was 38 nM.
Consider `O=C(NCc1cc(-c2cnc(C(F)(F)F)cn2)ccc1F)[C@@H]1C[C@@H](F)CN1S(=O)(=O)c1ccc(F)cc1` [Example 54, (2S,4R)-4-fluoro-N-(2-fluoro-5-(5-(trifluoromethyl)pyrazin-2-yl)benzyl)-1-((4-fluorophenyl)sulfonyl)pyrrolidine-2-carboxamide], for which the IC50 was 13 nM.
Under `O=C(NCc1cn(-c2ccc(C(F)(F)F)nc2)nc1Cl)[C@@H]1C[C@@H](F)CN1S(=O)(=O)c1ccc(F)cc1` [Example 146, (2S,4R)—N-([3-chloro-1-[6-(trifluoromethyl)pyridin-3-yl]-1H-pyrazol-4-yl]methyl)-4-fluoro-1-[(4-fluorobenzene)sulfonyl]pyrrolidine-2-carboxamide] stands 78 nM; under `O=C(NCc1cc(-c2ccc(C(F)F)c(F)c2)ncn1)[C@@H]1C[C@@H](F)CN1S(=O)(=O)c1ccc(F)cc1` [Example 59, (2S,4R)—N-[[6-[4-(difluoromethyl)-3-fluoro-phenyl]pyrimidin-4-yl]methyl]-4-fluoro-1-(4-fluorophenyl)sulfonyl-pyrrolidine-2-carboxamide], 29 nM.
For `N#Cc1ccc(-c2cnc(C(F)(F)F)nc2)cc1CNC(=O)[C@@H]1[C@@H](F)CCN1S(=O)(=O)c1ccc(F)cc1` [Example 38, (2R,3S)—N-([2-cyano-5-[2-(trifluoromethyl)pyrimidin-5-yl]phenyl]methyl)-3-fluoro-1-[(4-fluorobenzene)sulfonyl]pyrrolidine-2-carboxamide], the half-inhibitory concentration (IC50) came to 14 nM.
On to `O=C(NCc1cc(-c2ccc(C(F)F)cc2)ncn1)[C@@H]1C[C@@H](F)CN1S(=O)(=O)c1ccc(F)cc1` [Example 63, (2S,4R)—N-[[6-[4-(difluoromethyl)phenyl]pyrimidin-4-yl]methyl]-4-fluoro-1-(4-fluorophenyl)sulfonyl-pyrrolidine-2-carboxamide], for which the half-maximal inhibitory concentration (IC50) came to 318 nM.
`COc1nn(-c2ccc(C(F)(F)F)cc2)cc1CNC(=O)[C@@H]1C[C@@H](F)CN1S(=O)(=O)c1cccc(F)c1` [Example 134, (2S,4R)-4-fluoro-1-[(3-fluorobenzene)sulfonyl]-N-([3-methoxy-1-[4-(trifluoromethyl)phenyl]-1H-pyrazol-4-yl]methyl)pyrrolidine-2-carboxamide]: the 50% inhibitory concentration (IC50) was 23 nM.
Consider `O=C(NCc1cc(-c2ccc(SC(F)(F)F)cc2)ncn1)[C@@H]1C[C@@H](F)CN1S(=O)(=O)c1ccc(F)cc1` [Example 147, (2S,4R)-4-fluoro-1-(4-fluorophenylsulfonyl)-N-((6-(4-(trifluoromethylthio)phenyl)pyrimidin-4-yl)methyl)pyrrolidine-2-carboxamide], for which the IC50 came to 49 nM.
With `COc1cc(CNC(=O)[C@@H]2C[C@@H](F)CN2S(=O)(=O)c2ccc(F)cc2)cc(-c2ccc(C(F)(F)F)nc2)c1` [Example 116, (2S,4R)-4-fluoro-1-(4-fluorophenyl)sulfonyl-N-[[3-methoxy-5-[6-(trifluoromethyl)-3-pyridyl]phenyl]methyl]pyrrolidine-2-carboxamide], the IC50 was 47 nM.
On to `N#Cc1cnc(-c2ccc(C(F)(F)F)nc2)cc1CNC(=O)[C@@H]1C[C@@H](F)CN1S(=O)(=O)c1ccc(F)cc1` [Example 79, (2S,4R)—N-([5-cyano-2-[6-(trifluoromethyl)pyridin-3-yl]pyridin-4-yl]methyl)-4-fluoro-1-[(4-fluorobenzene)sulfonyl]pyrrolidine-2-carboxamide], for which the IC50 came out at 9 nM.
Under `O=C(NCc1cc(-c2ccc(C(F)(F)F)cn2)ccn1)[C@@H]1[C@@H](F)CCN1S(=O)(=O)c1ccc(F)cc1` [Example 72, (2R,3S)-3-fluoro-1-(4-fluorophenyl)sulfonyl-N-[[4-[5-(trifluoromethyl)-2-pyridyl]-2-pyridyl]methyl]pyrrolidine-2-carboxamide] stands 7 nM; under `O=C(NCc1cc(-c2cnc(C(F)(F)F)nc2)cnc1F)[C@@H]1C[C@@H](F)CN1S(=O)(=O)c1ccc(F)cc1` [Example 171, (2S,4R)-4-fluoro-1-(4-fluorophenyl)sulfonyl-N-[[2-fluoro-5-[2-(trifluoromethyl)pyrimidin-5-yl]-3-pyridyl]methyl]pyrrolidine-2-carboxamide], 211 nM.
Take `CNc1nc(CNC(=O)[C@@H]2C[C@@H](F)CN2S(=O)(=O)c2ccc(F)cc2)cc(-c2ccc(C(F)(F)F)cc2)n1` [Example 105, (2S,4R)-4-fluoro-1-[(4-fluorobenzene)sulfonyl]-N-[[2-(methylamino)-6-[4-(trifluoromethyl)phenyl]pyrimidin-4-yl]methyl]pyrrolidine-2-carboxamide]: the IC50 was 128 nM.
Under `O=C(NCc1cc(-c2cnc(C(F)(F)F)nc2)ccn1)[C@@H]1[C@@H](F)CCN1S(=O)(=O)c1ccc(F)cc1` [Example 157, (2R,3S)-3-fluoro-1-(4-fluorophenyl)sulfonyl-N-[[4-[2-(trifluoromethyl)pyrimidin-5-yl]-2-pyridyl]methyl]pyrrolidine-2-carboxamide] stands 103 nM; under `COc1cc(-c2ccc(C(F)(F)F)nc2)cc(CNC(=O)[C@@H]2C[C@@H](F)CN2S(=O)(=O)c2ccc(F)cc2)n1` [Example 118, (2S,4R)-4-fluoro-1-[(4-fluorobenzene)sulfonyl]-N-([6-methoxy-4-[6-(trifluoromethyl)pyridin-3-yl]pyridin-2-yl]methyl)pyrrolidine-2-carboxamide], 37 nM.
`O=C(NCc1cn(-c2ccc(C(F)(F)F)cc2)nc1Cl)[C@@H]1CCN1S(=O)(=O)c1ccc(F)cc1` [Example 197, (2S)—N-([3-chloro-1-[4-(trifluoromethyl)phenyl]-1H-pyrazol-4-yl]methyl)-1-[(4-fluorobenzene)sulfonyl]azetidine-2-carboxamide]: the half-maximal inhibitory concentration (IC50) is 15 nM.
Turning to `O=C(NCc1cc(-c2ccc3c(c2)OC(F)(F)O3)ncn1)[C@@H]1C[C@@H](F)CN1S(=O)(=O)c1ccc(F)cc1` [Example 92, (2S,4R)—N-[[6-(2,2-difluoro-2H-1,3-benzodioxol-5-yl)pyrimidin-4-yl]methyl]-4-fluoro-1-[(4-fluorobenzene)sulfonyl]pyrrolidine-2-carboxamide], the IC50 was found to be 87 nM.
The result for `O=C(NCc1cc(F)nc(-c2ccc(C(F)(F)F)nc2)c1)[C@@H]1C[C@@H](F)CN1S(=O)(=O)c1ccc(F)cc1` [Example 119, (2S,4R)-4-fluoro-N-([2-fluoro-6-[6-(trifluoromethyl)pyridin-3-yl]pyridin-4-yl]methyl)-1-[(4-fluorobenzene)sulfonyl]pyrrolidine-2-carboxamide] reads 52 nM.
With `O=C(NCc1cc(N2CCC(OC(F)(F)F)CC2)c(F)cn1)[C@@H]1C[C@@H](F)CN1S(=O)(=O)c1ccc(F)cc1` [Example 66, (2S,4R)-4-fluoro-1-(4-fluorophenyl)sulfonyl-N-[[5-fluoro-4-[4-(trifluoromethoxy)-1-piperidyl]-2-pyridyl]methyl]pyrrolidine-2-carboxamide], the concentration for half-maximal inhibition (IC50) is 22 nM.
The result for `C[C@@H]1C[C@@H](C(=O)NCc2cc(-c3ccc(C(F)(F)F)nc3)ncn2)N1S(=O)(=O)c1ccc(F)cc1` [Example 200, (2S,4R)-1-[(4-fluorobenzene)sulfonyl]-4-methyl-N-([6-[6-(trifluoromethyl)pyridin-3-yl]pyrimidin-4-yl]methyl)azetidine-2-carboxamide] reads 333 nM; that for `O=C(NCc1cc(-c2ccc(C(F)(F)F)nc2)c(F)cn1)[C@@H]1C[C@@H](F)CN1S(=O)(=O)c1ccc(F)cc1` [Example 140, (2S,4R)-4-fluoro-N-((5′-fluoro-6-(trifluoromethyl)-3,4′-bipyridin-2′-yl)methyl)-1-(4-fluorophenylsulfonyl)pyrrolidine-2-carboxamide], 20 nM.
In the case of `O=C(NCc1cc(N2CCC3(CC2)CC3(F)F)c(F)cn1)[C@@H]1C[C@@H](F)CN1S(=O)(=O)c1ccc(F)cc1` [Example 69, (2S,4R)—N-[[4-(2,2-difluoro-6-azaspiro[2.5]octan-6-yl)-5-fluoro-2-pyridyl]methyl]-4-fluoro-1-(4-fluorophenyl)sulfonyl-pyrrolidine-2-carboxamide], the 50% inhibitory concentration (IC50) is 14 nM.
For `COc1cnc(-c2cnc(C(F)(F)F)nc2)cc1CNC(=O)[C@@H]1C[C@@H](F)CN1S(=O)(=O)c1ccc(F)cc1` [Example 196, (2S,4R)-4-fluoro-1-(4-fluorophenylsulfonyl)-N-((5-methoxy-2-(2-(trifluoromethyl)pyrimidin-5-yl)pyridin-4-yl)methyl)pyrrolidine-2-carboxamide], the concentration for half-maximal inhibition (IC50) amounted to 134 nM.
On to `O=C(NCc1cc(-c2ccc(OC(F)(F)F)cc2)ncn1)[C@@H]1[C@@H](F)CCN1S(=O)(=O)c1ccc(F)cc1` [Example 111, (2R,3S)-3-fluoro-1-(4-fluorophenyl)sulfonyl-N-[[6-[4-(trifluoromethoxy)phenyl]pyrimidin-4-yl]methyl]pyrrolidine-2-carboxamide], for which the half-maximal inhibitory concentration (IC50) worked out at 7 nM.
